From patent US20220079984A1, “METHOD FOR TREATING CANCER WITH KIDNEY PROTECTION” (Renibus Therapeutics, Inc., priority 2020, published 2022)

Key:
[1] = system: mice; assay: SnPP preconditioning against cisplatin nephrotoxicity; assay type: in vivo; design: P creatinine: unit not given here
[2] = system: CD-1 mice; assay: RBT-3 preconditioning: cisplatin nephrotoxicity and renal cisplatin uptake; assay type: in vivo; settings: cisplatin 15 mg/Kg IP ± 1 mg RBT-3 IV 18 hrs before, 3 days post cisplatin, mean ± SEM
Method: 4. […] Mice were injected with 1 mg RBT-3 or saline vehicle via the tail vein (n, 5 each). […] Free food and water were provided throughout. […] Plasma levels of the proximal tubule enzyme, N-acetyl glucosamidase (“NAG”), were also assessed (BioAssay Systems #DNAG-100; Hayward, Calif.). […] Statistics. Each sample was assayed in duplicate with the average being used for data presentation and analysis. The human hepcidin data are presented as means±1 SD. Baseline plasma hepcidin values for the HV and CKD groups were compared by unpaired Student's t test. Comparisons of hepcidin levels over time were analyzed by ANOVA for repeated measures with 95% confidence intervals being presented. Baseline demographic data were compared by unpaired Student's t test. Mouse data are given as means±1 SEM.

[3] = SnPP 1 umole or vehicle day zero, cisplatin 15 mg/kg day 1, 3 days post cisplatin

SMILES	HO-1 mRNA ([1]; 3 days post cisplatin)	IL-6 mRNA ([1]; 3 days post cisplatin)	MCP-1 mRNA ([1]; 3 days post cisplatin)	NGAL mRNA ([1]; 3 days post cisplatin)	P21 mRNAs ([1]; 3 days post cisplatin)	BUN [1, 3]	P creatinine [1, 3]	Tissue LDH ([1]; renal cortical, 3 days post cisplatin)	BUN [2]	Creat [2]	Plasma NAG [2]	protection in cisplatin treated mice, compared to cisplatin alone ([1]; P<0.01)
N.N.[Cl][Pt][Cl] [Cisplatin, cis-diammine dichloroplatinum II]	1.16 ± 0.28	2.51 ± 1.65	10.9 ± 5.7	16.9 ± 12	4.23 ± 0.61	103 ± 22	0.94 ± 0.41	754 ± 54	105 ± 11 mg/dL	0.7 ± 0.1 mg/dL	19.5 ± 0.8 activity units/liter	–
C=Cc1c2[n-]c(c1C)/C=c1\[n-]/c(c(C)c1C=C)=C\c1[n-]c(c(CCC(=O)O)c1C)/C=c1\[n-]c(c(C)c1CCC(=O)O)=C2.[Sn+4] [SnPP, tin protoporphyrin]	–	–	–	–	–	–	–	–	–	–	–	statistically significant protection
